From patent US20230219906A1, “MACROCYCLIC-2-AMINO-3-FLUORO-BUT-3-ENAMIDES AS INHIBITORS OF MCL-1” (Janssen Pharmaceutica NV, priority 2020, published 2023)
Like-named read-outs stand apart in the source and are kept apart here.

What was measured:
[1] = target: Myeloid Cell Leukemia 1(Mcl-1) (Homo sapiens, UniProt Q07820); test: Terbium labeled Mcl-1 HTRF binding assay with Cy5-labeled BIM BH3 peptide; details: displacement of Cy5 Bim BH3 peptide; Ki=IC50/(1+[L]/Kd), [L]=8 nM, Kd=10 nM; 60 minutes at room temperature; read-out: Tb-MCL1 Ki
How it was run: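 TR-FRET displacement of Cy5-BIM BH3 peptide (8 nM; Kd 10 nM) from 25 pM Tb-labelled Mcl-1 in 10 mM Tris-HCl pH 7.5, 150 mM NaCl, 2 mM DTT, 0.0025% Tween-20, 0.1 mg/mL BSA, 1% DMSO. 60 min at room temperature; 665/620 nm ratio normalized to controls, IC50 from 11-point curve.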

[2] = system: MOLP-8 human multiple myeloma cell line; test: Caspase-Glo 3/7 apoptosis induction assay in MOLP-8 cells; type: cell-based; details: caspase-3/7 activity, 2 hours at 37° C., averaged over all runs on all batches, read-out: MOLP8 AC50
How it was run: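 MOLP-8 cells were treated for 2 h at 37° C with 10-dose, 1/3 serial dilutions ([…], 0.5% DMSO final, duplicates). Caspase-3/7 activity was read by Caspase-Glo luminescence 30 min after reagent addition. % effect was normalised between low (1% DMSO) and high (positive control) controls.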

Sequence of Myeloid Cell Leukemia 1(Mcl-1) (Q07820 whole entry): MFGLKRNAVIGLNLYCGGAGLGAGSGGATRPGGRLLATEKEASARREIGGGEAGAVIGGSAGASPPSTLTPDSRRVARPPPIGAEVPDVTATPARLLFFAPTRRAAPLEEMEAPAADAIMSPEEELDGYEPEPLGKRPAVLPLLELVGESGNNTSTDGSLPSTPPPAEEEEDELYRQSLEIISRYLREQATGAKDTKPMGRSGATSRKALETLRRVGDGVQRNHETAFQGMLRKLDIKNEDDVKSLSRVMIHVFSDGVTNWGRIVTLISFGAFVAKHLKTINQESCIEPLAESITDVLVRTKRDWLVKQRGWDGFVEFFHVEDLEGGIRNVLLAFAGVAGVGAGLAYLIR

| SMILES | Ki [1] [nM] | AC50 ([2]; Homo sapiens, MOLP-8, 2 h) [nM] | AC50 [2] [nM] |
| --- | --- | --- | --- |
| C[C@@H]1[C@@H](C)C/C=C(\F)[C@H](C(=O)N(C)CCN2CCOCC2)N2CCC[C@H]2CN2C[C@@]3(CCOc4cc(Cl)ccc43)COc3ccc(cc32)C(=O)NS1(=O)=O [Compound 78] | 0.016 | 547 | – |
| C[C@@H]1[C@@H](C)C/C=C(\F)[C@H](C(=O)N(C)CC2COCCO2)N2CCC[C@H]2CN2C[C@@]3(CCCc4cc(Cl)ccc43)COc3ccc(cc32)C(=O)NS1(=O)=O (single isomer, unassigned) [Compound 55] | 0.037 | – | 81.2 |
| C[C@@H]1[C@@H](C)C/C=C(\F)[C@H](C(=O)N(C)Cc2ccnn2C)N2CCC[C@H]2CN2C[C@@]3(CCCc4cc(Cl)ccc43)COc3ccc(cc32)C(=O)NS1(=O)=O [Compound 34] | 0.077 | 76.9 | – |
| C[C@@H]1[C@@H](C)C/C=C(\F)[C@H](C(=O)N(C)CCN2CCCOCC2)N2CCC[C@H]2CN2C[C@@]3(CCCc4cc(Cl)ccc43)COc3ccc(cc32)C(=O)NS1(=O)=O [Compound 75] | 0.022 | 83 | – |
| CC1CN(CCN(C)C(=O)[C@H]2/C(F)=C/C[C@H](C)[C@@H](C)S(=O)(=O)NC(=O)c3ccc4c(c3)N(C[C@@H]3CCCN32)C[C@@]2(CCCc3cc(Cl)ccc32)CO4)CC(C)O1 (some centres unmarked) [Compound 44] | 0.104 | 87.3 | – |
| C[C@@H]1[C@@H](C)C/C=C(\F)[C@H](C(=O)N(C)Cc2nnnn2C)N2CCC[C@H]2CN2C[C@@]3(CCCc4cc(Cl)ccc43)COc3ccc(cc32)C(=O)NS1(=O)=O [Compound 66] | 0.025 | 357 | – |
| C[C@@H]1[C@@H](C)C/C=C(\F)[C@H](C(=O)N(CCO)CCN2CCOCC2)N2CCC[C@H]2CN2C[C@@]3(CCCc4cc(Cl)ccc43)COc3ccc(cc32)C(=O)NS1(=O)=O [Compound 74] | 0.02 | 436 | – |
| C[C@@H]1[C@@H](C)C/C=C(\F)[C@H](C(=O)N2CCOC3(CCC3)C2)N2CCC[C@H]2CN2C[C@@]3(CCCc4cc(Cl)ccc43)COc3ccc(cc32)C(=O)NS1(=O)=O [Compound 26] | 0.115 | 153 | – |
| C[C@@H]1[C@@H](C)C/C=C(\F)[C@H](C(=O)N(C)C2CCOC2)N2CCC[C@H]2CN2C[C@@]3(CCCc4cc(Cl)ccc43)COc3ccc(cc32)C(=O)NS1(=O)=O (single isomer, unassigned) [Compound 69] | 0.049 | 118 | – |
| C[C@@H]1[C@@H](C)C/C=C(\F)[C@H](C(=O)N(C)CC2CCCCO2)N2CCC[C@H]2CN2C[C@@]3(CCCc4cc(Cl)ccc43)COc3ccc(cc32)C(=O)NS1(=O)=O (single isomer, unassigned) [Compound 72] | 0.061 | – | 75.2 |
| C[C@@H]1[C@@H](C)C/C=C(\F)[C@H](C(=O)N(C)CCC2CCOCC2)N2CCC[C@H]2CN2C[C@@]3(CCCc4cc(Cl)ccc43)COc3ccc(cc32)C(=O)NS1(=O)=O (single isomer, unassigned) [Compound 2] | 0.089 | 89.2 | – |
| C[C@@H]1[C@@H](C)C/C=C(\F)[C@H](C(=O)N(C)CC2OCCO2)N2CCC[C@H]2CN2C[C@@]3(CCCc4cc(Cl)ccc43)COc3ccc(cc32)C(=O)NS1(=O)=O [Compound 79] | 0.038 | 106 | – |
| C[C@@H]1[C@@H](C)C/C=C(\F)[C@H](C(=O)N(C)C)N2CCC[C@H]2CN2C[C@@]3(CCCc4cc(Cl)ccc43)COc3ccc(cc32)C(=O)NS1(=O)=O [Compound 3] | 0.129 | 99.2 | – |
| C[C@@H]1[C@@H](C)C/C=C(\F)[C@H](C(=O)N2CCN(C)[C@@H](C)C2)N2CCC[C@H]2CN2C[C@@]3(CCCc4cc(Cl)ccc43)COc3ccc(cc32)C(=O)NS1(=O)=O [Compound 24] | 0.068 | 151 | – |
| CC1CN(CCN(C)C(=O)[C@H]2/C(F)=C/C[C@H](C)[C@@H](C)S(=O)(=O)NC(=O)c3ccc4c(c3)N(C[C@@H]3CCCN32)C[C@@]2(CCCc3cc(Cl)ccc32)CO4)CC(C)O1 (mixture of isomers) [Compound 45] | 0.113 | – | 113 |
| C[C@@H]1[C@@H](C)C/C=C(\F)[C@H](C(=O)N2CC(C)(N3CCOCC3)C2)N2CCC[C@H]2CN2C[C@@]3(CCCc4cc(Cl)ccc43)COc3ccc(cc32)C(=O)NS1(=O)=O [Compound 84] | 0.04 | 317 | – |
| COCCCN(CCCOC)C(=O)[C@H]1/C(F)=C/C[C@H](C)[C@@H](C)S(=O)(=O)NC(=O)c2ccc3c(c2)N(C[C@@H]2CCCN21)C[C@@]1(CCCc2cc(Cl)ccc21)CO3 [Compound 37] | 0.061 | 49.5 | – |

| SMILES | Ki [1] [nM] | AC50 ([2]; Homo sapiens, MOLP-8, 2 h) [nM] | AC50 [2] [nM] |
| --- | --- | --- | --- |
| CO[C@@H]1CCN(C(=O)[C@H]2/C(F)=C/C[C@H](C)[C@@H](C)S(=O)(=O)NC(=O)c3ccc4c(c3)N(C[C@@H]3CCCN32)C[C@@]2(CCCc3cc(Cl)ccc32)CO4)C1 [Compound 52] | 0.036 | 90.5 | – |
| C[C@@H]1[C@@H](C)C/C=C(\F)[C@H](C(=O)N2CCCC3(CCOC3)C2)N2CCC[C@H]2CN2C[C@@]3(CCCc4cc(Cl)ccc43)COc3ccc(cc32)C(=O)NS1(=O)=O (single isomer, unassigned) [Compound 14] | 0.126 | 266 | – |
| CO[C@H]1CN(C(=O)[C@H]2/C(F)=C/C[C@H](C)[C@@H](C)S(=O)(=O)NC(=O)c3ccc4c(c3)N(C[C@@H]3CCCN32)C[C@@]2(CCCc3cc(Cl)ccc32)CO4)C[C@H]1OC [Compound 60] | 0.022 | 92.3 | – |
| C[C@@H]1CN(C(=O)[C@H]2/C(F)=C/C[C@H](C)[C@@H](C)S(=O)(=O)NC(=O)c3ccc4c(c3)N(C[C@@H]3CCCN32)C[C@@]2(CCCc3cc(Cl)ccc32)CO4)CCN1C [Compound 23] | 0.054 | 101 | – |
| C[C@@H]1[C@@H](C)C/C=C(\F)[C@H](C(=O)N(C)CC2CCCOC2)N2CCC[C@H]2CN2C[C@@]3(CCCc4cc(Cl)ccc43)COc3ccc(cc32)C(=O)NS1(=O)=O (single isomer, unassigned) [Compound 65] | 0.062 | – | 56.7 |
| C[C@@H]1[C@@H](C)C/C=C(\F)[C@H](C(=O)N2CCCC3(C2)CC3(F)F)N2CCC[C@H]2CN2C[C@@]3(CCCc4cc(Cl)ccc43)COc3ccc(cc32)C(=O)NS1(=O)=O (some centres unmarked) [Compound 29] | 0.494 | 408 | – |
| C[C@@H]1[C@@H](C)C/C=C(\F)[C@H](C(=O)N2CCOCC2)N2CC[C@H]2CN2C[C@@]3(CCCc4cc(Cl)ccc43)COc3ccc(cc32)C(=O)NS1(=O)=O [Compound 7] | 0.223 | 346 | – |
| COCCN(CCOC)C(=O)[C@H]1/C(F)=C/C[C@H](C)[C@@H](C)S(=O)(=O)NC(=O)c2cc3c(cc2F)OC[C@]2(CCCc4cc(Cl)ccc42)CN3C[C@@H]2CCCN21 [Compound 18] | 0.05 | 213 | – |
| Cc1nc(CN(C)C(=O)[C@H]2/C(F)=C/C[C@H](C)[C@@H](C)S(=O)(=O)NC(=O)c3ccc4c(c3)N(C[C@@H]3CCCN32)C[C@@]2(CCCc3cc(Cl)ccc32)CO4)co1 [Compound 80] | 0.079 | 134 | – |
| C[C@@H]1[C@@H](C)C/C=C(\F)[C@H](C(=O)N2CCOC(C(F)(F)F)C2)N2CCC[C@H]2CN2C[C@@]3(CCCc4cc(Cl)ccc43)COc3ccc(cc32)C(=O)NS1(=O)=O (single isomer, unassigned) [Compound 20] | 0.255 | 193 | – |
| C[C@@H]1[C@@H](C)C/C=C(\F)[C@H](C(=O)N(C)C2CCCOC2)N2CCC[C@H]2CN2C[C@@]3(CCCc4cc(Cl)ccc43)COc3ccc(cc32)C(=O)NS1(=O)=O (single isomer, unassigned) [Compound 63] | 0.041 | – | 57.4 |
| C[C@@H]1[C@@H](C)C/C=C(\F)[C@H](C(=O)N2CCN(C)CC2)N2CCC[C@H]2CN2C[C@@]3(CCCc4cc(Cl)ccc43)COc3ccc(cc32)C(=O)NS1(=O)=O [Compound 13] | 0.059 | 297 | – |
| C[C@@H]1[C@@H](C)C/C=C(\F)[C@H](C(=O)N(C)CCO)N2CCC[C@H]2CN2C[C@@]3(CCCc4cc(Cl)ccc43)COc3ccc(cc32)C(=O)NS1(=O)=O [Compound 27] | 0.054 | 396 | – |
| C[C@@H]1[C@@H](C)C/C=C(\F)[C@H](C(=O)N(C)C2CCCOC2)N2CCC[C@H]2CN2C[C@@]3(CCCc4cc(Cl)ccc43)COc3ccc(cc32)C(=O)NS1(=O)=O (single isomer, unassigned) [Compound 62] | 0.058 | 134 | – |
| C[C@@H]1[C@@H](C)C/C=C(\F)[C@H](C(=O)N(C)CC(F)(F)F)N2CCC[C@H]2CN2C[C@@]3(CCCc4cc(Cl)ccc43)COc3ccc(cc32)C(=O)NS1(=O)=O [Compound 30] | 0.379 | 351 | – |
| C[C@@H]1[C@@H](C)C/C=C(\F)[C@H](C(=O)N2CCC3(CCCCC3)C2)N2CCC[C@H]2CN2C[C@@]3(CCCc4cc(Cl)ccc43)COc3ccc(cc32)C(=O)NS1(=O)=O [Compound 32] | 0.603 | 478 | – |
| COCCN1CCC(CN(C)C(=O)[C@H]2/C(F)=C/C[C@H](C)[C@@H](C)S(=O)(=O)NC(=O)c3ccc4c(c3)N(C[C@@H]3CCCN32)C[C@@]2(CCCc3cc(Cl)ccc32)CO4)CC1 [Compound 85] | 0.025 | 759 | – |
